Consider four molecules from ChEMBL document CHEMBL1201862, “PubChem BioAssay data set” (2004).

Structures are written as SMILES.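 96-well plates; 48 h exposure; 5 concentrations. Endpoints by linear interpolation between flanking doses. Not reached: highest tested concentration assigned. GI50: concentration for 50% inhibition of growth.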 Calls of active or inactive are those of the source. No stated cut-off is given here; in the data, active = GI50 up to about 1.1 µM and inactive = higher.

Some test systems named below: U-251; IGROV-1; TK-10; SNB-75; SK-MEL-28; SNB-19; MOLT-4; CCRF-CEM; NCI-H522; HCC 2998; M14; HL-60; LOX IMVI; EKVX; MDA-MB-435; MDA-N; MCF7; A549; NCI/ADR-RES; OVCAR-4.
What all share (test): growth of human tumour cells (NCI), 48 h

Consider `O=C(CCc1ccc(O)c(O)c1)NCCc1cc(OCc2ccccc2)cc(OCc2ccccc2)c1`, for which the GI50 was 5.77 µM (inactive) with U-251; 5.93 µM (inactive) in the assay with IGROV-1; 16.3 µM (inactive) in the assay on TK-10; 4.98 µM (inactive) in the assay with SNB-75; 10.8 µM (inactive) with SK-MEL-28; 3.71 µM (inactive) in the assay with SNB-19. Besides, the GI50 in the assay with MOLT-4 is 2.52 µM (inactive); in the assay with CCRF-CEM it was 1.77 µM (inactive); with NCI-H522, 1.79 µM (inactive); with HCC 2998, 9.86 µM (inactive); in the assay on M14 it was 12.1 µM (inactive); in the assay with HL-60 it was 2.51 µM (inactive). The GI50 with LOX IMVI is 10.4 µM (inactive); in the assay with EKVX it was 13.1 µM (inactive); in the assay with MDA-MB-435, 12.2 µM (inactive); in the assay with MDA-N it was 11 µM (inactive); in the assay on MCF7 it was 12 µM (inactive); in the assay with A549, 16.7 µM (inactive). Besides, the GI50 in the assay on NCI/ADR-RES was 13.1 µM (inactive).

Turning to `C=CCOC(=O)N1c2ccc(O)cc2[C@@]23O[C@@]24[C@@H]1C#C/C=C\C#C[C@]3(O)C(=O)C[C@@H]4C`, the GI50 is 95.9 µM (inactive) in the assay with U-251; 62.8 µM (inactive) in the assay on IGROV-1; > 100 µM (inactive) in the assay with TK-10; 27.2 µM (inactive) in the assay with SNB-75; > 100 µM (inactive) with SK-MEL-28; > 100 µM (inactive) in the assay on SNB-19. Besides, the GI50 was 14.8 µM (inactive) in the assay with MOLT-4; 28.4 µM (inactive) with CCRF-CEM; 40.1 µM (inactive) in the assay with NCI-H522; > 100 µM (inactive) in the assay on HCC 2998; 39.7 µM (inactive) in the assay on M14; 37.8 µM (inactive) with HL-60. For the same molecule, the GI50 was 78 µM (inactive) in the assay with EKVX; 27.4 µM (inactive) with MDA-MB-435; > 100 µM (inactive) in the assay on MDA-N; 61.8 µM (inactive) in the assay on MCF7; 32 µM (inactive) with A549; 0.0231 µM (active) with OVCAR-4. Moreover, in the assay with NCI/ADR-RES, the GI50 is 65.5 µM (inactive).

Consider `CC(C)(C)OC(=O)NC1CCCCC1NC(=O)C(=O)NC1CCCCC1NC(=O)OC(C)(C)C` (stereo unspecified), for which the GI50 with U-251 is 25.9 µM (inactive); in the assay with IGROV-1, > 100 µM (inactive); with TK-10, 37.6 µM (inactive); in the assay with SK-MEL-28, > 100 µM (inactive); with SNB-19 it was 28.4 µM (inactive); with MOLT-4, > 100 µM (inactive). The GI50 was > 100 µM (inactive) with CCRF-CEM; 66.5 µM (inactive) with NCI-H522; > 100 µM (inactive) in the assay on HCC 2998; > 100 µM (inactive) with M14; > 100 µM (inactive) with HL-60; > 100 µM (inactive) with LOX IMVI. For the same molecule, the GI50 in the assay on EKVX, with MDA-MB-435, in the assay on MDA-N, with MCF7, in the assay on A549 and in the assay with OVCAR-4 was > 100 µM (inactive) throughout. Also, the GI50 in the assay with NCI/ADR-RES was > 100 µM (inactive).

Regarding `NC(=O)/C=c1/c2ccccc2n2nc3ccccc3c12`, the GI50 in the assay on U-251 is 12.9 µM (inactive); in the assay with IGROV-1 it was 10.6 µM (inactive); in the assay with TK-10, 23.3 µM (inactive); in the assay with SK-MEL-28, 16.8 µM (inactive); with SNB-19, 20.1 µM (inactive); in the assay with MOLT-4, 2.69 µM (inactive). Also, the GI50 in the assay on CCRF-CEM was 3.56 µM (inactive); with NCI-H522 it was 14.1 µM (inactive); in the assay on HCC 2998 it was 17 µM (inactive); in the assay on M14 it was 27.5 µM (inactive); in the assay with HL-60, 3.91 µM (inactive); in the assay with LOX IMVI it was 4.78 µM (inactive). Besides, the GI50 is 14.4 µM (inactive) with EKVX; 16 µM (inactive) in the assay with MDA-MB-435; 15.6 µM (inactive) in the assay with MDA-N; 26.9 µM (inactive) in the assay on MCF7; 31.7 µM (inactive) in the assay with A549; 10.3 µM (inactive) in the assay on OVCAR-4. Further, the GI50 with NCI/ADR-RES was 16.1 µM (inactive).
